From ChEMBL document CHEMBL1135809 (J Med Chem, 2002)

How the values were obtained:
[1] = target: T1, 5-hydroxytryptamine receptor 1A (Mus musculus, UniProt Q64264); test: Inhibition of […] binding to 5-hydroxytryptamine 1A receptor
T1 sequence (Q64264 whole entry): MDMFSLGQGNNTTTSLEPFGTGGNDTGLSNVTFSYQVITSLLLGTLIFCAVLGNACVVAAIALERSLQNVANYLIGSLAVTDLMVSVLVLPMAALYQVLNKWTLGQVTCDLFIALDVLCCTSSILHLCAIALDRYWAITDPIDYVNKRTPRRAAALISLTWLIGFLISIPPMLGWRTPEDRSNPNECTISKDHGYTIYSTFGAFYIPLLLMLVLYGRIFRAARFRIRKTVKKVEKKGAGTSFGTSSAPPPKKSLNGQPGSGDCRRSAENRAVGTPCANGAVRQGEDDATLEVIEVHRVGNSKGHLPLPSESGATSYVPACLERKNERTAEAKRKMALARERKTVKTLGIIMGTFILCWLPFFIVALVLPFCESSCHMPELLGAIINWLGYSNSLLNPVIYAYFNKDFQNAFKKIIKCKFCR

[2] = target: 5-hydroxytryptamine receptor 2A (Homo sapiens, UniProt P28223); test: Inhibition of ketanserin binding to 5-hydroxytryptamine 2A receptor
[3] = target: T2, 5-hydroxytryptamine receptor 3A (Homo sapiens, UniProt P46098); test: Inhibition of GR-65630 binding to 5-hydroxytryptamine 3 receptor
T2 sequence (P46098 whole entry): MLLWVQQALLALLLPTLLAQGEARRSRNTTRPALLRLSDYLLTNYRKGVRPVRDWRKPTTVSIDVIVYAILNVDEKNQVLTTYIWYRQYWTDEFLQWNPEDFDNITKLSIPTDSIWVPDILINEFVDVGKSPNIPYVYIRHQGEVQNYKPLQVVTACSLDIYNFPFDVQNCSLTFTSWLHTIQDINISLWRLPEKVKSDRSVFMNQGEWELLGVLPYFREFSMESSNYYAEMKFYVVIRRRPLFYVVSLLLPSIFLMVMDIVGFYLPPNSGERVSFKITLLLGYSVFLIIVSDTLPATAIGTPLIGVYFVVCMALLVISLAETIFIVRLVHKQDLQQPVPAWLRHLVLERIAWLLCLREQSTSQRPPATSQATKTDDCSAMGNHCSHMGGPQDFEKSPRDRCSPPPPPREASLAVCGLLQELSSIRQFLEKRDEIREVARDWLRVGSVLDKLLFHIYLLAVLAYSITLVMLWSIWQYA

D(1A) dopamine receptor = D(1A) dopamine receptor (Mus musculus, UniProt Q61616); test: Inhibition of SCH 23390 binding to Dopamine receptor D1
Histamine H1 receptor = Histamine H1 receptor (Homo sapiens, UniProt P35367); test: Inhibition of mepyramine binding to Histamine H1 receptor
[4] = target: Glutamate receptor ionotropic, NMDA 2C (Rattus norvegicus, UniProt Q00961); test: Inhibition of MK 801 binding to NMDA, PCP receptor
Substance-P receptor = Substance-P receptor (Homo sapiens, UniProt P25103); test: Inhibition of [Sar9,Met(O2)11]-SP binding to human Tachykinin receptor 1 (NK1)
Neuromedin-K receptor = target: T3, Neuromedin-K receptor (Homo sapiens, UniProt P29371); test: Inhibition of [125I][MePhe7]-NKB binding to human Tachykinin receptor 3 (NK3)
T3 sequence (P29371 whole entry): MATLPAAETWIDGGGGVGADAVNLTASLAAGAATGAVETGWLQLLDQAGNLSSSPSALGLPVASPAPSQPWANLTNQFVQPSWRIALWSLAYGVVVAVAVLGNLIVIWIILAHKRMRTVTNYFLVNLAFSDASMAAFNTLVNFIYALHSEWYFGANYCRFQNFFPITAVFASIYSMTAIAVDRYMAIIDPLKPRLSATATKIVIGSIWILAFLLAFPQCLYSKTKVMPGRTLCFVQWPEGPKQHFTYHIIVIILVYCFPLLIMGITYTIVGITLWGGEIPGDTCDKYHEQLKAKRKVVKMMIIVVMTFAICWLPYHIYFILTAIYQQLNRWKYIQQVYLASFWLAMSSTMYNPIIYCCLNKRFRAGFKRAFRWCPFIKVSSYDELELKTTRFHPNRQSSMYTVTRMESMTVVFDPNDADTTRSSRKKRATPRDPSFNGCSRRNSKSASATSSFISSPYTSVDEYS

Substance-K receptor = target: T4, Substance-K receptor (Homo sapiens, UniProt P21452); test: Inhibition of [125I]NKA binding to human Tachykinin receptor 2 (NK2)
T4 sequence (P21452 whole entry): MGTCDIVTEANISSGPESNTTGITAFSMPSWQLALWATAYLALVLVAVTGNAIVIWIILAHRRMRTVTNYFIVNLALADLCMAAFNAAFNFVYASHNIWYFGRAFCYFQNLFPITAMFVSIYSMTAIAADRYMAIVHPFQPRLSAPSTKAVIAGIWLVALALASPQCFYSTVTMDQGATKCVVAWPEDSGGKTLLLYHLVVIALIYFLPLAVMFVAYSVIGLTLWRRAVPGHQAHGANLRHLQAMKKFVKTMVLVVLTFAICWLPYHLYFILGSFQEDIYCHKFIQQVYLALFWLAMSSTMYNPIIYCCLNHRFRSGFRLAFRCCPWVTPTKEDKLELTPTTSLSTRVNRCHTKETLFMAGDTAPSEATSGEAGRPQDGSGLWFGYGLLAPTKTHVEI

[5] = target: T5, Alpha-2A adrenergic receptor (Homo sapiens, UniProt P08913); test: Inhibition of idazoxane binding to noradrenaline alpha-2 receptor
T5 sequence (P08913 whole entry): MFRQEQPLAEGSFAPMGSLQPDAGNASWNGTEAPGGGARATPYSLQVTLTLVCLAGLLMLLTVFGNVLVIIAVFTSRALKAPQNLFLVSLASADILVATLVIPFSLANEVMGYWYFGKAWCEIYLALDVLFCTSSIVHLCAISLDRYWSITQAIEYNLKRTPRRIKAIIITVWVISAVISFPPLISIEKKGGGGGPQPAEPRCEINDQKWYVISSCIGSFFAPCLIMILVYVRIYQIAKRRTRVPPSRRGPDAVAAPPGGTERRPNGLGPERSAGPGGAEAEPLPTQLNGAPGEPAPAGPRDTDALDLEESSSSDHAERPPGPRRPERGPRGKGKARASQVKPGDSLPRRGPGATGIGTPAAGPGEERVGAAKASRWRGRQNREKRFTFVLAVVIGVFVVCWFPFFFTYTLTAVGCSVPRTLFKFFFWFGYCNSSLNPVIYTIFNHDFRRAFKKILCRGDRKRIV

[6] = The compound was tested for inhibition of noradrenaline reuptake; assay type: functional
[7] = Inhibition of prazosin binding to noradrenaline alpha-1 receptor
[8] = The compound was tested for inhibition of serotonin reuptake; assay type: functional
[9] = target: Sigma non-opioid intracellular receptor 1 (Homo sapiens) (UniProt Q99720); test: Selectivity ratio (Sigma1/Sigma2)
Chain of Sigma non-opioid intracellular receptor 1 (Homo sapiens) (Q99720 whole entry): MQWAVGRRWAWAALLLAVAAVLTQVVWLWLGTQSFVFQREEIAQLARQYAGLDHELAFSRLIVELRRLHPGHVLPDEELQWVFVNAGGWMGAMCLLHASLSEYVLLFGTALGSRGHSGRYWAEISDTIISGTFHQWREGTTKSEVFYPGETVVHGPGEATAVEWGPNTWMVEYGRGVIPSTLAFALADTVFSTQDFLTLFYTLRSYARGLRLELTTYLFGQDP

Chain of 5-hydroxytryptamine receptor 2A (P28223 whole entry): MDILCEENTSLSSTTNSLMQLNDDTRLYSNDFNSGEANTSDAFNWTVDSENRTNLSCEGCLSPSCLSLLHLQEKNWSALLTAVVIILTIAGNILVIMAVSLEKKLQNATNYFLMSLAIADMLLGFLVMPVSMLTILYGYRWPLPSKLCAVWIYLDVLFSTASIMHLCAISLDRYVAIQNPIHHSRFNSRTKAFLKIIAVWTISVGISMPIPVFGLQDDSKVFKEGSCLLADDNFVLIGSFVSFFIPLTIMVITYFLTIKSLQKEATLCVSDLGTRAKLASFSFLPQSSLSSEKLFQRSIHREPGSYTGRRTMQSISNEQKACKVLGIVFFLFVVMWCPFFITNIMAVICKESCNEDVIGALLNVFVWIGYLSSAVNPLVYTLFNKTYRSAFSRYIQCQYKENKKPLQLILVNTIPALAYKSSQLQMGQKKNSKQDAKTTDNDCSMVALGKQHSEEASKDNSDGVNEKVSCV
Chain of Substance-P receptor (P25103 whole entry): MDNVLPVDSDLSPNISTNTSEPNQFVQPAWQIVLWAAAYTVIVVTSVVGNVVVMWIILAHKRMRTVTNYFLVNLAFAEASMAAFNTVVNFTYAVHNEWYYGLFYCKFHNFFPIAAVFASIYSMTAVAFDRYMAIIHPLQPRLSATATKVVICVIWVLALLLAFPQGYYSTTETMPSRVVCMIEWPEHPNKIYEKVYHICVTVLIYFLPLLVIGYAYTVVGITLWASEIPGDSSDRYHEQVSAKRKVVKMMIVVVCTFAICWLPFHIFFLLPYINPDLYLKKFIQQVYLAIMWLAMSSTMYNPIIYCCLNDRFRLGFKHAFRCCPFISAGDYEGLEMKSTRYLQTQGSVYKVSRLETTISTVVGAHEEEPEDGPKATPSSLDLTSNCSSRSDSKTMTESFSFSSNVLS
Chain of Histamine H1 receptor (P35367 whole entry): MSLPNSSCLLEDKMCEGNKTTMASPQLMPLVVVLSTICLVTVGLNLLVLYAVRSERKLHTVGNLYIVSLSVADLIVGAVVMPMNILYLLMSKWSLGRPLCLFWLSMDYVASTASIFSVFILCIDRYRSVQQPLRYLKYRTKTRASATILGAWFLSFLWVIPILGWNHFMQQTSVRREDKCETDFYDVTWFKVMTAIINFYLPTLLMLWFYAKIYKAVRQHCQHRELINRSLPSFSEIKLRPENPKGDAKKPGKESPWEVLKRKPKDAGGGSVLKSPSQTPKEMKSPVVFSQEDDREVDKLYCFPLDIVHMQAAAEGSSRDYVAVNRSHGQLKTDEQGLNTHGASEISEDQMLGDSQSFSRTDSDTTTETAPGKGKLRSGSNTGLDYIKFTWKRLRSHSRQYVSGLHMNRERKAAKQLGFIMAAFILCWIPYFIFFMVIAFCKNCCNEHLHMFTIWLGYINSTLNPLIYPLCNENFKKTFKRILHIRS
Chain of Glutamate receptor ionotropic, NMDA 2C (Q00961 whole entry): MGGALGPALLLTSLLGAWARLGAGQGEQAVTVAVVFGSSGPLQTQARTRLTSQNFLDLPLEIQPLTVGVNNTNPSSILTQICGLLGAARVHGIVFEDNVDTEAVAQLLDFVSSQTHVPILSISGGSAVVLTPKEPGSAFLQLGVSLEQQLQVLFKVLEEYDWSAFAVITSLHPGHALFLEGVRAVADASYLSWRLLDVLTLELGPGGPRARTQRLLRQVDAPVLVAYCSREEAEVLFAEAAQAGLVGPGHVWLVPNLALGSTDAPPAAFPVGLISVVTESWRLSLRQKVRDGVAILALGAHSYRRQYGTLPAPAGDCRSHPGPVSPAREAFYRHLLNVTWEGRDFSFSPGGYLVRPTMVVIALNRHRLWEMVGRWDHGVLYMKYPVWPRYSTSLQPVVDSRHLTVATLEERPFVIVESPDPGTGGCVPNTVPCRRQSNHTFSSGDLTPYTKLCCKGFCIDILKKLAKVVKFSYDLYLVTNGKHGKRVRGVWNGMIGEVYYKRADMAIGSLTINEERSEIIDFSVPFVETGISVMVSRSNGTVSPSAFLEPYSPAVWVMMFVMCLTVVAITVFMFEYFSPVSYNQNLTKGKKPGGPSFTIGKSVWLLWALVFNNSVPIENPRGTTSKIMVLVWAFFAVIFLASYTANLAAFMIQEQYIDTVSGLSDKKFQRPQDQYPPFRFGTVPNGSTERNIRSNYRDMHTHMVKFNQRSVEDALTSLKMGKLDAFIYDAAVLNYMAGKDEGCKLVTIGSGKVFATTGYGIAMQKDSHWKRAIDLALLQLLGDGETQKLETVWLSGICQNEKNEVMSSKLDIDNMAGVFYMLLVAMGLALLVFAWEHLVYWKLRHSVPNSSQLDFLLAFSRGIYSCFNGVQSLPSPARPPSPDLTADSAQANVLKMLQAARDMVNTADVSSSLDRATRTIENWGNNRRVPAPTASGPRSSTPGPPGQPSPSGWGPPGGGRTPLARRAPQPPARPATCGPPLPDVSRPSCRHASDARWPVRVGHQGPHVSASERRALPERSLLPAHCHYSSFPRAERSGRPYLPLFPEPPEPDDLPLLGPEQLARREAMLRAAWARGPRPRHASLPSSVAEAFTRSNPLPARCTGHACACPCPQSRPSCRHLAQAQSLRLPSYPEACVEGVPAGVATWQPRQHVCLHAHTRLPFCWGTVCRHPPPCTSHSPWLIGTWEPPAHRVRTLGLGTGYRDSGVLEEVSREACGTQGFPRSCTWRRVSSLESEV
Chain of D(1A) dopamine receptor (Q61616 whole entry): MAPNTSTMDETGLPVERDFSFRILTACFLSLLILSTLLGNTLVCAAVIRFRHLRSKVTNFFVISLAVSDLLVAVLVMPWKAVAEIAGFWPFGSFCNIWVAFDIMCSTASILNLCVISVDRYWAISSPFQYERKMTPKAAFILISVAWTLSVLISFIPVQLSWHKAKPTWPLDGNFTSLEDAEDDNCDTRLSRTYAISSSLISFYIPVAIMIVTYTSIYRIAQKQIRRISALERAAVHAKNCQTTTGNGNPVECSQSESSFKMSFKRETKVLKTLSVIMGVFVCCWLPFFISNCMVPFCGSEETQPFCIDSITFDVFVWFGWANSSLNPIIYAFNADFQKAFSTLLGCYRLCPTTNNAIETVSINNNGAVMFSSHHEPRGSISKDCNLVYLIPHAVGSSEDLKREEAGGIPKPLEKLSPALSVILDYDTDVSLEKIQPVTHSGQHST

SMILES | IC50 [1] | IC50 [2] | IC50 [3] | IC50 (D(1A) dopamine receptor) | IC50 (Histamine H1 receptor) | IC50 [4] | IC50 (Substance-P receptor) | IC50 (Neuromedin-K receptor) | IC50 (Substance-K receptor) | IC50 [5] | IC50 [6] | IC50 [7] | IC50 [8] | Selectivity ratio [9]
COC1OC2(CCN(Cc3ccccc3)CC2)c2ccccc21 (stereo unspecified) | > 1 µM | > 10 µM | > 10 µM | > 10 µM | > 10 µM | > 10 µM | > 10 µM | > 10 µM | > 10 µM | 6.2 µM | > 10 µM | > 10 µM | 8 µM | 
COC1Cc2ccccc2C2(CCN(C/C=C/c3ccccc3)CC2)O1 (stereo unspecified) |  |  |  |  |  |  |  |  |  |  |  |  |  | 301
COC1Cc2ccccc2C2(CCN(CCCCc3ccccc3)CC2)O1 (stereo unspecified) |  |  |  |  |  |  |  |  |  |  |  |  |  | 30
OC1Cc2ccccc2C2(CCN(Cc3ccccc3)CC2)O1 (stereo unspecified) |  |  |  |  |  |  |  |  |  |  |  |  |  | 236
OC1Cc2ccccc2C2(CCN(CCc3ccccc3)CC2)O1 (stereo unspecified) |  |  |  |  |  |  |  |  |  |  |  |  |  | 2
COC1Cc2ccccc2C2(CCN(CCCc3ccccc3)CC2)O1 (stereo unspecified) | > 1 µM | 0.46 µM | > 10 µM | > 10 µM | 8 µM | > 10 µM | > 10 µM | > 10 µM | > 10 µM | 3.1 µM | 0.51 µM | 1.4 µM | 0.7 µM | 
COC1Cc2ccccc2C2(CCN(Cc3ccccc3)CC2)O1 (stereo unspecified) | > 1 µM | 6.6 µM | > 10 µM | > 10 µM | > 10 µM | > 10 µM | > 10 µM | > 10 µM | > 10 µM | 3 µM |  |  | 6 µM | 
